Assay results from PubChem BioAssay (NCI).
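Step 1: Grow cells in 96-well plates. Step 2: Expose to compound for 48 hours at 5 concentrations. Step 3: Interpolate endpoints linearly; if unreached, use highest concentration. GI50: concentration for 50% inhibition of growth. The concentration for full growth arrest is given as TGI.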

Legend:
Assay in all cases: DTP human tumour cell line panel, 48 h
[1] = tested on: SF-539 CNS
[2] = tested on: PC-3 prostate
[3] = tested on: DU-145 prostate
[4] = tested on: IGROV1 ovarian
[5] = tested on: A549 NSCLC
[6] = tested on: NCI-H23 lung
[7] = tested on: A498 renal
[8] = tested on: SK-MEL-5 melanoma
[9] = tested on: MOLT-4 leukemia
[10] = tested on: SK-MEL-2 melanoma
[11] = tested on: MALME-3M melanoma
[12] = tested on: NCI-H522 lung
[13] = tested on: CAKI-1 renal
[14] = tested on: SR leukemia
[15] = tested on: MDA-MB-435
[16] = tested on: UACC-257 melanoma
[17] = tested on: COLO 205 colon
[18] = tested on: NCI/ADR-RES ovarian
[19] = tested on: U251 CNS
[20] = tested on: SNB-19 CNS
[21] = tested on: OVCAR-4 ovarian
[22] = tested on: M14 melanoma
[23] = tested on: TK-10 renal
[24] = tested on: LOX IMVI melanoma
[25] = tested on: HOP-62 NSCLC
[26] = tested on: T-47D breast
[27] = tested on: KM12 colon
[28] = tested on: MDA-MB-231 breast
[29] = tested on: OVCAR-3 ovarian
[30] = tested on: UO-31 renal
[31] = tested on: HCC-2998 colon
[32] = tested on: HL-60(TB) leukemia
[33] = tested on: HT29 colon
[34] = tested on: SNB-75 CNS
[35] = tested on: SF-295 CNS
[36] = tested on: SN12C renal
[37] = tested on: SK-MEL-28 melanoma
[38] = tested on: OVCAR-8 ovarian
[39] = tested on: K-562 leukemia
[40] = tested on: OVCAR-5 ovarian
[41] = tested on: HOP-92 NSCLC
[42] = tested on: UACC-62 melanoma
[43] = tested on: RXF 393 renal
[44] = tested on: MCF7 breast
[45] = tested on: SK-OV-3 ovarian
[46] = tested on: ACHN renal
[47] = tested on: HCT-15 colon

Compound: CCCCCCOc1ccc(/C=N/Nc2cc(C)nc3ccc(Cl)cc23)cc1
- GI50 [1]: 1840 nM
- TGI [1]: 3260 nM
- GI50 [2]: 1570 nM
- TGI [2]: 3210 nM
- GI50 [3]: 1860 nM
- TGI [3]: 3570 nM
- GI50 [4]: 1790 nM
- TGI [4]: 3530 nM
- GI50 [5]: 1930 nM
- TGI [5]: 3730 nM
- GI50 [6]: 1880 nM
- TGI [6]: 3540 nM
- GI50 [7]: 1770 nM
- TGI [7]: 3400 nM
- GI50 [8]: 1690 nM
- TGI [8]: 3060 nM
- GI50 [9]: 1850 nM
- TGI [9]: 4050 nM
- GI50 [10]: 1720 nM
- TGI [10]: 3240 nM
- GI50 [11]: 1910 nM
- TGI [11]: 3440 nM
- GI50 [12]: 1790 nM
- TGI [12]: 3510 nM
- GI50 [13]: 1650 nM
- TGI [13]: 3060 nM
- GI50 [14]: 336 nM
- TGI [14]: 1600 nM
- GI50 [15]: 1710 nM
- TGI [15]: 3150 nM
- GI50 [16]: 1610 nM
- TGI [16]: 3260 nM
- GI50 [17]: 1580 nM
- TGI [17]: 3040 nM
- GI50 [18]: 1900 nM
- TGI [18]: 3700 nM
- GI50 [19]: 1900 nM
- TGI [19]: 3430 nM
- GI50 [20]: 1880 nM
- TGI [20]: 3390 nM
- GI50 [21]: 1750 nM
- TGI [21]: 3180 nM
- GI50 [22]: 1710 nM
- TGI [22]: 3360 nM
- GI50 [23]: 1890 nM
- TGI [23]: 3320 nM
- GI50 [24]: 1260 nM
- TGI [24]: 2570 nM
- GI50 [25]: 1550 nM
- TGI [25]: 3080 nM
- GI50 [26]: 1980 nM
- TGI [26]: 3970 nM
- GI50 [27]: 1670 nM
- TGI [27]: 3380 nM
- GI50 [28]: 1670 nM
- TGI [28]: 3240 nM
- GI50 [29]: 2050 nM
- TGI [29]: 3740 nM
- GI50 [30]: 1500 nM
- TGI [30]: 2880 nM
- GI50 [31]: 1930 nM
- TGI [31]: 3450 nM
- GI50 [32]: 1390 nM
- TGI [32]: 3380 nM
- GI50 [33]: 1590 nM
- TGI [33]: 3090 nM
- GI50 [34]: 1810 nM
- TGI [34]: 3430 nM
- GI50 [35]: 1730 nM
- TGI [35]: 3240 nM
- GI50 [36]: 1690 nM
- TGI [36]: 3180 nM
- GI50 [37]: 1760 nM
- TGI [37]: 3180 nM
- GI50 [38]: 1910 nM
- TGI [38]: 4210 nM
- GI50 [39]: 467 nM
- TGI [39]: 2220 nM
- GI50 [40]: 1920 nM
- TGI [40]: 3350 nM
- GI50 [41]: 1420 nM
- TGI [41]: 3070 nM
- GI50 [42]: 1780 nM
- TGI [42]: 3270 nM
- GI50 [43]: 1560 nM
- TGI [43]: 2970 nM
- GI50 [44]: 1470 nM
- TGI [44]: 3200 nM
- GI50 [45]: 1700 nM
- TGI [45]: 3110 nM
- GI50 [46]: 1710 nM
- TGI [46]: 3080 nM
- GI50 [47]: 1270 nM
- TGI [47]: 2550 nM

Compound: N=C(N)c1ccc(OCCCCCCCCCCOc2ccc(C(=N)N)cc2)cc1
- GI50 [3]: 1610 nM
- TGI [3]: 3010 nM
- GI50 [18]: 17700 nM
- TGI [18]: 83700 nM
- GI50 [31]: 1290 nM
- TGI [31]: 2790 nM
- GI50 [43]: 1280 nM
- TGI [43]: 2870 nM
- GI50 [46]: 1540 nM
- TGI [46]: 2880 nM
